Data: US9702824B2, “pH sensors” (PROMEGA CORPORATION, priority 2012, dated 2017)

Experiments:
[1] = tested on: wild-type U2-OS cells; assay: Toxicity of HaloTag pH sensors, CELLTITER Glo Cell Viability Assay (Example 9); format: cell-based; details: 0-10 uM, overnight
Description: U2-OS cells were plated at 10,000 cells/well into wells of 96-well plates and incubated overnight. The next day, 0-10 uM (serially diluted 1:2) PBI-4959, PBI-5004 or PBI-4479 was added to the cells and again incubated overnight. After incubation, the media containing the HaloTag® pH sensors was removed, and 100 ul of fresh media (McCoy's 5A+10% FBS) was added. Cell viability was determined using the CELLTITER Glo Cell Viability Assay according to the manufacturer's protocol (Promega Corporation). Luminescence was read on a GloMAX®-Multi luminometer.

[2] = Stability in DMSO by HPLC purity; format: physicochemical; details: 2 mM in DMSO; for HPLC Purity @ 532 nm, Ave: average of days 0-110; for HPLC Purity @ 532 nm: shielded from light
Description: PBI-4479 was dissolved to 2 mM in DMSO to approximately 2.33 mg/mL. Aliquots of 350 uL from the 2 mM solution were stored shielded from light at −20° C., 4° C. and room temperature. Stability was established by measuring fluorescent emission intensity and by testing HPLC purity at time 0, 1 day, 1 week, 1 month, 4 months, and 6 months from when the solutions were prepared and stored. For the fluorescence measurements, each aliquot was diluted (1 uL) into 4 mL of 0.1M sodium phosphate pH 4.0 directly into a 4.5 mL plastic cuvette and mixed by inversion of the vial. The maximum emission peak at 562 nm was acquired using a HoribaJobinYvon fluorometer using an excitation of 532 nm with 1.5 nm slit width. For HPLC measurements, each aliquot was diluted to 1 mM in 0.1M sodium phosphate pH 4.0, and 2 uL tested. The purity of each aliquot was tested using an Agilent 1100 liquid chromatography system equipped with a quaternary pump and a diode-array detector. The diode-array detector was set at 254 nm and 532 nm. The elution was performed using a mobile phase (A) containing 0.1% TFA in water, and a mobile phase (B) containing HPLC grade acetonitrile. A Phenomenex Synergi MAX-RP column (50×4.6 mm; 2.6 μm) was used to perform the chromatography. The HPLC was performed as follows: a gradient ran 3% to 60% mobile phase (B) to 3.60 minutes, a hold at 60% mobile phase (B) for 1 minute, a ramp up to 100% mobile phase (B) to 6 minutes, another hold at 100% mobile phase (B) for 2 minutes, and then back to 3% mobile phase (B) for 1.5 minutes. The column was given 2.5 minutes to re-equilibrate back to the starting conditions. In these conditions, the product elutes at approximately 3.7 minutes. Purity (as area percent) of the product was reported at 254 nm and 532 nm.

[3] = target: T1, U2-OS HaloTag-EDG1 cells (Homo sapiens, UniProt P21453); assay: Detection of internalization using an impermeable pH sensor (Example 13); format: cell-based; details: 500 nM sensor, with 1 uM S1P
T1 construct: host or cells: U2-OS HaloTag-EDG1 cells
T1 sequence (P21453 with tags, fused parts or gaps): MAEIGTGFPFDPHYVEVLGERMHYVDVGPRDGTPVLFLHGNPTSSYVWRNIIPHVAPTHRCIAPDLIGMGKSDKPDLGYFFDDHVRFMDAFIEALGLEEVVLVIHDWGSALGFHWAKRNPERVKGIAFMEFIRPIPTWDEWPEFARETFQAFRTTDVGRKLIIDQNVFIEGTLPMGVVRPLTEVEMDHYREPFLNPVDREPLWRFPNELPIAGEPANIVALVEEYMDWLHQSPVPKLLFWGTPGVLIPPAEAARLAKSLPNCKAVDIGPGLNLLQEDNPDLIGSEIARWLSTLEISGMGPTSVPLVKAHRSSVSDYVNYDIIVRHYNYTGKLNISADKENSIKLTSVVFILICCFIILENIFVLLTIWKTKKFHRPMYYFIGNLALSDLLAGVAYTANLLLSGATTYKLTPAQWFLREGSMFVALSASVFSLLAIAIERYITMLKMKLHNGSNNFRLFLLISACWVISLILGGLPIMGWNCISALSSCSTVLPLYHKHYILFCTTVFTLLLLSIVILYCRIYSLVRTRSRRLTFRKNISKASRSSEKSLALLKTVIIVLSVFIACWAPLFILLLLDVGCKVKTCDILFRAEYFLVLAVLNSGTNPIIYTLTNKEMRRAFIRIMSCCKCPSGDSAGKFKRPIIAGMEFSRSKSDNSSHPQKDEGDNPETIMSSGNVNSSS
Description: The next day, the media was replaced with McCoy's 5A+0.5% cFBS and incubated overnight at 37° C./5% CO2. […] 1 uM S1P (Sphingosine-1-Phosphate) or carrier (DMSO) was then added to the cells, and images were acquired sequentially on Olympus FV500 at 37° C./5% CO2.

[4] = target: T2, IL6-HT7-EDG1 (endothelial differential growth gene 1) in U2-OS cells (UniProt P0A3G2+P21453, A155T/A167V/A172T/A224E/C128F/C176G/D78G/E160K/E257K/H272N/K175M/K195N/L47V/L88M/N227D/S2A/S58T/T264A/Y273L/Y87F); assay: Receptor internalization detection by imaging; format: cell-based; details: 1 uM sensor, stimulated with 1 uM S1P, imaged for 1 hour
T2 construct: expressed in transfected cells; host or cells: U2-OS
T2 sequence (P0A3G2+P21453 fused with the stated changes): as the sequence (P21453 with tags, fused parts or gaps) above
Description: (§1) Experiments were conducted during development of embodiments of the present invention to detect and monitor internalization/endocytosis. U2-OS cells expressing (either transiently or stably) a HaloTag (HT7)-Receptor fusion protein containing an IL6 signal sequence were used. The following HT7-receptor fusion proteins were expressed in the U2-OS cells: IL6-HT7-β2AR (β2 adrenergic receptor; NM_000024.3), IL6-HT7-EDG1 ([…]; NM_001400), IL6-HT7-DOR1 (δ-opioid receptor; NM 000911) and IL6-HT7-EGFR (epidermal growth factor receptor; AB528482). The cells were plated at 2×10^5 cells/mL in complete media into wells. The cells were then incubated overnight at 37° C., 5% CO2. The media was then replaced with 200 ul McCoy's 5A media with 0.5% charcoal-stripped FBS (Hyclone) and incubated for about 1 hour at 37° C., 5% CO2. The cells were then labeled with 1 uM pH sensor PBI-4479 and incubated for 10 minutes at 37° C., 5% CO2. The cells were then washed 3 times with 200 ul complete media to remove any unbound sensor. The cells were then stimulated with the respective agonist (1 uM Isoproterenol for IL6-HT7-β2AR, 1 uM S1P for IL6-HT7-EDG1, 1 uM SNC80 for IL6-HT7-DOR1, and 1 ng/mL rhEGF for IL6-HT7-EGFR) and imaged every 5 minutes for 1 hour on an Olympus FV500.

[5] = target: T3, IL6-HT7-β2AR (β2 adrenergic receptor) in U2-OS cells (Homo sapiens, UniProt P07550); assay: Receptor internalization detection by imaging; format: cell-based; details: 1 uM sensor, stimulated with 1 uM Isoproterenol, imaged for 1 hour
T3 construct: expressed in transfected cells; host or cells: U2-OS
Description: as §1

[6] = tested on: IL6-HT7-EGFR (epidermal growth factor receptor) in U2-OS cells; assay: Receptor internalization detection by imaging; format: cell-based; details: 1 uM sensor, stimulated with 1 ng/mL rhEGF, imaged for 1 hour
Description: as §1

[7] = target: T4, IL6-HT7-DOR1 (δ-opioid receptor) in U2-OS cells (Homo sapiens, UniProt P41143); assay: Receptor internalization detection by imaging; format: cell-based; details: 1 uM sensor, stimulated with 1 uM SNC80, imaged for 1 hour
T4 construct: expressed in transfected cells; host or cells: U2-OS
T4 sequence (P41143 with tags, fused parts or gaps): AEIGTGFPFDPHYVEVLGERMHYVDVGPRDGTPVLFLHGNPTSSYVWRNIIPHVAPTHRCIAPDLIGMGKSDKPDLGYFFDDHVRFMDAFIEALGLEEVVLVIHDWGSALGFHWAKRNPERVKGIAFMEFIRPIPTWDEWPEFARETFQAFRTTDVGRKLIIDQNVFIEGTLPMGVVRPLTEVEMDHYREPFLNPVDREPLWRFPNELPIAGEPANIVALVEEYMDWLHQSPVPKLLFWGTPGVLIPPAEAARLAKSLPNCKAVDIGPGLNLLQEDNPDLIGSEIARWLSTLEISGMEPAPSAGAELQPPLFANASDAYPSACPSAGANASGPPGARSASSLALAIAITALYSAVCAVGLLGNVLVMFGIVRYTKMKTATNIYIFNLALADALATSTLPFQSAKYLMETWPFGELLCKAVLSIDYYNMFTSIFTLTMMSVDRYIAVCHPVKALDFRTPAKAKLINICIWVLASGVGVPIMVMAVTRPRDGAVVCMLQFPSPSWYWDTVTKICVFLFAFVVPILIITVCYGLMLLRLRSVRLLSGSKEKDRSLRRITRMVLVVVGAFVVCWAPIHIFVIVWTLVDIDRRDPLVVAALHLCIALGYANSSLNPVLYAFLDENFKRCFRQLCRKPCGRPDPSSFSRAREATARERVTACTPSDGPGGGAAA
Description: as §1

[8] = tested on: U2-OS cells stably expressing HaloTag-NLS; assay: pH sensor permeability, pulse and chase with HaloTag Oregon Green (Example 12); details: 2 uM pulse for 10 minutes

SMILES: O=C(NCCOCCOCCOCCOCCOCCOCCCCCCCl)c1ccc(C(=O)[O-])c(-c2c3ccc(=[N+]4CCN(CCCCS(=O)(=O)O)CC4)cc-3oc3cc(N4CCN(CCCCS(=O)(=O)O)CC4)ccc23)c1 [PBI-4479]
- toxicity (cell viability) [1]: non-toxicity
- HPLC Purity @ 532 nm, Ave ([2]; 4° C.): 93.6 area percent
- HPLC Purity @ 532 nm, Ave ([2]; RT): 92.5 area percent
- HPLC Purity @ 532 nm ([2]; 4° C., 0 days): 91.8 area percent
- HPLC Purity @ 532 nm ([2]; 4° C., 1 day): 92.5 area percent
- HPLC Purity @ 532 nm ([2]; 4° C., 7 days): 93.9 area percent
- HPLC Purity @ 532 nm ([2]; 4° C., 30 days): 95.7 area percent
- HPLC Purity @ 532 nm ([2]; 4° C., 110 days): 93.9 area percent
- HPLC Purity @ 532 nm ([2]; RT, 0 days): 91.8 area percent
- HPLC Purity @ 532 nm ([2]; RT, 1 day): 91.3 area percent
- HPLC Purity @ 532 nm ([2]; RT, 7 days): 92.5 area percent
- HPLC Purity @ 532 nm ([2]; RT, 30 days): 95.1 area percent
- HPLC Purity @ 532 nm ([2]; RT, 110 days): 91.8 area percent
- HPLC Purity @ 532 nm ([2]; −20° C., 0 days): 91.1 area percent
- HPLC Purity @ 532 nm ([2]; −20° C., 1 day): 93.9 area percent
- HPLC Purity @ 532 nm ([2]; −20° C., 7 days): 92.7 area percent
- HPLC Purity @ 532 nm ([2]; −20° C., 30 days): 95.8 area percent
- HPLC Purity @ 532 nm ([2]; −20° C., 110 days): 95.2 area percent
- HPLC Purity @ 532 nm, Ave ([2]; −20° C.): 93.7 area percent
- detection of HaloTag-EDG1 internalization [3]: ability to detect internalization of HaloTag-EDG1
- detection of receptor internalization [4]: detection of HaloTag-EDG1 internalization
- detection of receptor internalization [5]: detection of HaloTag-B2AR internalization
- detection of receptor internalization [6]: detection of HaloTag-EGFR internalization
- detection of receptor internalization [7]: detection of HaloTag-DOR1 internalization
- cell permeability [8]: non-permeability
